# Test system: Salmonella Typhi PhoP-promoter GFP reporter, fluorescence, 4 h
# Test: Inhibition of PhoP regulon, Salmonella typhi GFP reporter cells, confirmation, 4 h (AID 1850)
row,SMILES,IC50 [µM]
1,N/C(=N\N=C/c1ccc(F)cc1)N/N=C\c1ccc(F)cc1,37.8
2,NC1CCN(c2nc3c(cc2F)c(=O)c(C(=O)O)cn3-c2ccc(F)cc2F)C1 (stereo not given),< 0.23
3,Oc1c(Br)cc(Br)cc1C=Nc1cccc2ncccc12,37.2
4,CCN1CCCC1CNC(=O)C1CCN(Cc2nc(-c3cccc(Br)c3)oc2C)CC1 (stereo not given),127
5,CCc1cccc(NC(=O)CSC2=NS(=O)(=O)c3ccccc32)c1,37.3
6,CCN1CCN(CCNC(=O)c2ccc3c(c2)N(Cc2ccc(F)cc2)C(=O)/C(=C/c2ccccc2)S3)CC1,44.8
7,CCn1cc(C(=O)NCCN(C)C)c(=O)c2cc(F)c(N3CCN(C)CC3)cc21,23.2
8,COc1ccc(C(=O)N/N=C/c2sc3ccccc3c2O)cc1,73.3
9,Cc1cc(C)c(NC(=O)C[N+](C)(C)CC(O)COc2cccc3ccccc23)c(C)c1 (stereo not given),46.3
10,COC(=O)c1sccc1NC(=S)NCc1ccc(Cl)cc1,36.9
11,O=C(Nc1cccc(Cl)c1)Nc1nccs1,40
12,O=c1ccc2cc3c([nH]c4ccc(Br)cc43)oc-2c1O,24.1
13,Fc1ccc([C@@H]2CCNC[C@H]2COc2ccc3c(c2)OCO3)cc1,42.9
14,O=[N+]([O-])c1cccc(NNS(=O)(=O)c2ccccc2F)c1,6.05
15,Cc1c(N=Cc2cc(Br)cc(Br)c2O)cccc1C(=O)O,40.9
16,CCOc1cccc(CNCCc2c(C)[nH]c3ccc(OC(F)(F)F)cc23)c1O,39.7
17,CN(C)c1ccc(O)c2c1CC1CC3[C@@H](N(C)C)C(=O)C(C(N)=O)=C(O)[C@]3(O)C(=O)C1=C2O (stereo not given in full),8.82
18,COc1cc(CNCCc2c[nH]c3ccccc23)ccc1OCc1ccc(F)cc1,50.9
19,Cc1cccc(NC2=NC3(CCCCC3)N=C(N)N2)c1,36.8
20,c1ccc2c(c1)CSc1sccc1C2=C1CCNCC1,49.7
21,CCn1cc(C(=O)O)c(=O)c2cc(F)c(N3CCN(C(=S)NC(=O)c4cc(OC)cc(OC)c4)CC3)cc21,45.8
22,CCCCCNC(=O)c1cn(CC)c2cc(N3CCN(C)CC3)c(F)cc2c1=O,98
23,CCn1cc(C(=O)O)c(=O)c2cnc(N3CCNCC3)nc21,25.7

row,SMILES,IC50 [µM]
1,CC[C@@H](C)[C@H](CNC)NC[C@@H](Cc1cccc2ccccc12)NCCc1cccc(C(F)(F)F)c1,19.9
2,CC(C)CCC(CCNCc1ccccn1)c1ccc(Cl)cc1 (stereo not given),65.4
3,N/C(=N\OS(=O)(=O)c1ccc2ccccc2c1)c1cccnc1,20.7
4,Cc1occc1C(=O)N/N=C/c1cccs1,69.7
5,O=C(O)c1ccc(N2C(=O)CC(N3C(=O)/C(=C/c4ccc(Cl)cc4)SC3=S)C2=O)cc1 (stereo not given),34.3
6,O=C(N/N=C/c1ccc([N+](=O)[O-])s1)C(O)c1ccccc1 (stereo not given),39.4
7,CCn1cc(C(=O)O)c(=O)c2cc(F)c(N3CCN(C(=S)NC(=O)c4cccc(C)c4)CC3)cc21,16
8,O=C(Nc1ccncc1)Nc1ccc(Cl)cc1,32.8
9,O=C(O)c1cc2c(cn1)[nH]c1ccccc12,77.7
10,CCC(=O)N1CCN(c2cc3c(cc2F)c(=O)c(C(=O)O)cn3CC)CC1,52.3
11,O=C(CSc1nc2ccccc2[nH]1)Nc1ccc(F)c(F)c1,62.5
12,O=C(CN1CC[n+]2c(-c3cccs3)csc21)c1ccc(-c2ccccc2)cc1,26.4
13,COc1ccc(/C=C/C(=O)NC(=S)NNC(=O)c2cnccn2)cc1,49.8
14,COc1cc(/C=C/[N+](=O)[O-])ccc1O,102
15,CNC(CC(=O)c1ccc([N+](=O)[O-])cc1)C(Cl)(Cl)Cl (stereo not given),95
16,CN(C)CCCN1c2ccccc2Sc2ccccc21,114
17,COc1cc(C(=O)O/N=C2\C=CC(=O)C(C)=C2)cc(OC)c1OC,121
18,S=C(NCc1ccc(Cl)cc1)Nc1ccncc1,19.1
19,NC1=NC[C@H](Cc2ccccc2)N1CCCCC1CCCCC1,22
20,CCn1cc(C(=O)NCCCN(C)C)c(=O)c2cc(F)c(N3CCN(C)CC3)cc21,20.4
21,CN1CCN(C(c2ccc(C(F)(F)F)cc2)c2ccc3cccnc3c2O)CC1 (stereo not given),20
22,COc1cc(CNCCc2c[nH]c3ccccc23)ccc1OCc1ccccc1F,133

# Source: PubChem BioAssay AID1850 (Southern Research Specialized Biocontainment Screening …, 2009)
